# Results: US6491953B1, “Controlled release compositions and method” (Amcol International Corporation, priority 1999, dated 2002)
# Assay: Adsorption / entrapment of solid and liquid materials on POLYPORE E 200 microparticles (Example 1)
# Assay type: physicochemical
# Settings: adsorbed on microparticles of Example 1 (POLYPORE E 200)
# From the text: The adsorbent polymer microparticles made by the suspension polymerization technique include at least two polyunsaturated monomers, preferably allyl methacrylate and an ethylene glycol dimethacrylate, and, optionally, monounsaturated monomers. The microparticles are characterized by being open to their interior, due to either particle fracture upon removal of a porogen after polymerization or to subsequent milling. […] In a preferred embodiment, the broken sphere microparticles are characterized by a mean unit diameter from about 1 to about 50 microns, more preferably from about 1 to about 25 microns, most preferably, from about 1 to about 20 microns.
# The copolymer powder of Example 1 was mixed with zinc pyrithione (solids having a particle size of 3 to 5 microns slurried in water) in an amount of 12 grams of slurry per one gram of the copolymer, then dried in an oven at 80° C. to evaporate water. […] Zinc pyrithione was supplied by Ruetger Nease Company, as mixture of 48% of zinc pyrithione, 51% water, and 1% zinc chloride, and is used as antidandruff component in hair care products, e.g., antidandruff shampoos.
# The copolymer of Example 1 was loaded with a methanol/salicylic acid solution in an amount of 12 grams per gram, and dried in an oven at 80° C. to evaporate the methanol. […] Salicylic acid is an antiseptic and antifungal agent.
# Retinol was dissolved in same amount of ether. The solution (5.5 grams) was adsorbed on 1 gram of the adsorbent polymer of Example 1. […] Usually retinol is in the form of sticky crystals, is light sensitive, and is skin irritant. Retinol is used in cosmetic formulations and as a vitamin.
Compound,Free-Flowing (g/g) adsorbed,Total (g/g) adsorbed
CC(=O)OCc1ccccc1 [Benzyl Acetate],10.2 g/g,12.3 g/g
OCC(O)CO [Glycerin],6.0 g/g,8.0 g/g
"Oc1cc(Cl)ccc1Oc1ccc(Cl)cc1Cl [IRGASAN DP 300, 5-chloro-2-(2,4-dichlorophenoxy)phenol]",–,10.0 g/g
Cyclomethicone [Cyclomethicone (DC 244)],9.6 g/g,12.0 g/g

# Results, then the compound that gave them:
Free-Flowing (g/g) adsorbed,Total (g/g) adsorbed,Compound
9.2 g/g,12.3 g/g,COc1ccc(C(=O)c2ccccc2)c(O)c1 [Benzophenone-3]
8.0 g/g,10.7 g/g,CCCCCCCCCCCCCC(=O)OC(C)C [Isopropyl Myristate]
5.6 g/g,7.2 g/g,CC(=O)Oc1c(C)c(C)c2c(c1C)CCC(C)(CCC[C@H](C)CCC[C@H](C)CCCC(C)C)O2 (stereo partly shown) [Vitamin E Acetate]

# Assay: Adsorption / entrapment of solid and liquid active agents on POLYPORE L 200 microparticles (Example 2)
# Assay type: physicochemical
# Settings: adsorbed on microparticles of Example 2 (POLYPORE L 200)
# Procedure: The copolymer of Example 2 was loaded with a methanol/salicylic acid solution to an amount of 12 grams per gram, and dried in an oven at 80° C. to evaporate methanol. The resulting dry product was a white, fine powder, with […] entrapped salicylic acid, i.e., 2.8 grams per gram.
# Retinol was dissolved in an equal weight amount of ether, then 5.5 grams of the solution was adsorbed on 1 gram of the adsorbent polymer of Example 2. Thereafter, ether was evacuated under vacuum, and a free-flowing light yellow powder was obtained. The adsorbed amount of retinol was 2.75 grams per gram, i.e., 73%. Usually, retinol is in form of sticky crystals, is light sensitive, and a skin irritant.
# The microparticles of Example 2 (POLYPORE™ L 200) also had various other solid and liquid active agents adsorbed thereto, as shown in Table 2: […]
Compound,Free-Flowing (g/g) adsorbed,Total (g/g) adsorbed
CC(=O)OCc1ccccc1 [Benzyl Acetate],9.9 g/g,12.7 g/g
OCC(O)CO [Glycerin],7.6 g/g,10.0 g/g
"Oc1cc(Cl)ccc1Oc1ccc(Cl)cc1Cl [IRGASAN DP 300, 5-chloro-2-(2,4-dichlorophenoxy)phenol]",–,10.7 g/g
Cyclomethicone [Cyclomethicone (DC 244)],10.8 g/g,15.0 g/g

# Other lines, results leading:
Free-Flowing (g/g) adsorbed,Total (g/g) adsorbed,Compound
9.1 g/g,12.8 g/g,COc1ccc(C(=O)c2ccccc2)c(O)c1 [Benzophenone-3]
9.5 g/g,11.4 g/g,CCCCCCCCCCCCCC(=O)OC(C)C [Isopropyl Myristate]
7.0 g/g,9.2 g/g,CC(=O)Oc1c(C)c(C)c2c(c1C)CCC(C)(CCC[C@H](C)CCC[C@H](C)CCCC(C)C)O2 (stereo partly shown) [Vitamin E Acetate]

# Assay: Stability (discoloration) of ascorbic acid compositions added to water
# Assay type: physicochemical
# Settings: in water at 45° C.
# Procedure: The stability of the three compositions was tested by adding individual portions of the three compositions to water at 25° C. and at 45° C. A control solution of 1-ascorbic acid in water discolored after four hours at 45° C. and after five days at room temperature. […] A polymer-ascorbic acid solution, without the addition of a release retardant, also discolored during the test. Accordingly, a release retardant protects and stabilizes an active agent adsorbed onto an adsorbent polymer.
row,time after which solution discolored,Compound
1,four,O=C1O[C@H]([C@@H](O)CO)C(O)=C1O [1-ascorbic acid]

# Same assay, conditions: in water at room temperature
row,time after which solution discolored,Compound
1,five,O=C1O[C@H]([C@@H](O)CO)C(O)=C1O [1-ascorbic acid]
